Laboratory results published in patent US7473708B2, “Agents with leukotriene B4-like antiviral (enveloped RNA) activities” (priority 1996, dated 2009).
Entries after “also recorded” stand apart in the source; their conditions may differ.

Experiments:
HSV-1 = assay: Synthesis of HSV-1 particles in Vero cells; conditions: concentration not stated (summary)
[1] = test system: influenza virus (strain A/Pr/8/34); assay: Influenza infection in lungs of mice; format: in vivo; conditions: LTB4 1, 10 and 100 ng/dose intranasal, days 1 to 5, day 6
Description: BALB/c mice (6-8 week old) were infected (n=6/group) by delivering 10 PFU of influenza virus (strain A/Pr/8/34) in the nasal cavity. On days 1 to 5 post-infection, mice were treated intranasally with a placebo or with varying doses of LTB4 (1, 10 and 100 ng/dose). On the 6th day post-infection, all mice were sacrificed and influenza viral loads in lungs were determined using the MDCK cell line.

[2] = test system: cell cultures of Examples I and II; assay: LTB4 cytotoxicity, trypan blue dye exclusion test; format: cell-based, human; conditions: concentrations up to 30 nM
Description: In cell cultures described in Examples I and II, the cytotoxic effect of LTB4 was assessed by the trypan blue dye exclusion test at concentrations up to 30 nM. […] Cell viability was assessed by the trypan blue exclusion test; values (from 1 experiment representative of 3) represent the mean cell viability in cell cultures (n=24).

[3] = test system: murine CMV (Smith strain); assay: CMV viral load in infected mice (plaque assay)
Description: Six week old BALB/c mice were infected by intravenous injection with 10^4 plaque forming units (PFU) of murine CMV (Smith strain). Mice were divided into two groups: the first group received a placebo while the second group was treated with 25 ng of LTB4, administered intravenously once a day starting on the day of infection. After 12 days of treatment, mice were sacrificed and the lungs and salivary glands harvested. The organs were homogenized, in 0.5 ml of culture medium, to liberate intracellular viral particles. After centrifugation, the cell free supernatants were tested for the presence of CMV particles by standard plaque assay technique. Briefly, serially diluted supernatants were added to a monolayer of mouse embryonic fibroblast cells (highly susceptible to CMV infection) for 1 hour at 37° C. after which the nonadsorbed virus were removed and the monolayer overlaid with 1.5% methylcellulose. After a 5-day incubation, the monolayers were fixed with formaldehyde and stained with violet crystal. The number of plaques, which represents areas of infection equivalent to one viral particle, were counted and the CMV titers in the lungs and salivary glands determined.

EBV, strain B95-8 = assay: EBV-induced clump formation in peripheral blood mononuclear cells; format: cell-based, human; conditions: EBV-infected PBMC, ten to twelve days of culture
Description: Peripheral blood mononuclear cells (PBMC) were obtained from healthy donors after dextran sedimentation and centrifugation on Ficoll-Paque™ gradients as previously described by Boyum A. (Scand. J. Immunol., 1976, 5(5):9). […] When indicated, EBV-infected PBMC were simultaneously treated (single addition) with different concentrations of LTB4, i.e. 0.3, 3.0 and 30 nM, respectively. […] Cells were cultured in microplates and the clumps were counted in each well. […] NS: nonstimulated cells.

HIV-1IIIB = assay: Reverse transcriptase activity in HIV-1-infected PBMC; format: cell-based, human; conditions: LTB4 in culture media (100 nM elsewhere in the source), two weeks of culture
Description: PBMC were resuspended at a density of 10^6 cells/ml in culture medium (RPMI-1640 supplemented with 10% FBS), and cultured in the presence of 3 μg/ml PHA-P (Sigma, St.Louis, Mo.) and 30 U/ml of recombinant human IL-2 for 2 to 3 days at 37° C. under a 5% CO2 atmosphere. PHA-stimulated PBMC were resuspended at 1×10^6 cells/ml and were infected with HIV-1IIIB (various multiplicity of infection: number of infectious virus particles/target cell) in the absence or the presence of increasing concentrations of LTB4 (0, 30, 100, and 200 nM). The culture media were changed twice a week and appropriate amounts of LTB4 were added at every medium change. […] Virus replication was monitored either by reverse transcriptase or p24 assays. […]
Enzymatic activity was measured with 50 μl of cell-free supernatant to which 10 μl of a solution A (5 mM dithiothreitol, 50 mM KCl, 0.05% Triton X-100) and 40 μl of a solution B (5 mM MgCl2, […], 0.04 mg of poly(rA)-oligo(dT)12-18, […] [^3H]TTP (40 to 70 Ci/mmol) had been added. After incubation for 1 hour at 37° C., samples were precipitated with one volume of a solution containing 0.15% pyrophosphate and 1.66% trichloroacetic acid prior filtration onto glass fiber filters by using a cell harvester system. The filters were dried and radioactivity was measured in a liquid scintillation counter (1205/1204 BS Beta-plate; Wallac Oy, Turku, Finland). […]

EBV = assay: EBV-induced tumor formation in SCID mice given human PBL
[4] = 25 ng LTB4 i.v. once a day, 12 days
[5] = EBV-infected, LTB4 i.p. 10 then 5 μg/mouse, day 42

## CCCCC/C=C\C[C@@H](O)/C=C/C=C/C=C\[C@@H](O)CCCC(=O)O [LTB4, 5S,12R-dihydroxy-6,8,10,14 (Z,E,E,Z)-eicosatetraenoic acid]
HSV-1
  inhibition of formation of new HSV-1 particles: 75%
[1]
  influenza titers in the lungs versus placebo: significantly decreased; also recorded: reduced
[2]
  cytotoxic effect / cell viability: no direct cytotoxic effect
[3]; [4]
  reduction in the CMV viral load in the lungs versus placebo: 77%
  reduction in the CMV viral load in the salivary glands versus placebo: 70%
[3]; infected mice
  CMV viral load versus placebo: reduced
EBV, strain B95-8
  formation of clumps: markedly affected the formation of clumps
HIV-1IIIB
  reduction of reverse transcriptase (viral) activity: more than 70%
EBV; [5]
  Splenomegaly: Enlarged (mice affected / mice in group): 6/9
  Splenomegaly: Normal (mice affected / mice in group): 1/9
  Splenomegaly: Very enlarged (mice affected / mice in group): 2/9
  Tumor size 800-1500 mm^3 (mice affected / mice in group): 3/9
  Tumor size <800 mm^3 (mice affected / mice in group): 6/9
  Tumor size >1500 mm^3 (mice affected / mice in group): 0/9
EBV; SCID mice, 42 days
  tumor growth induced by EBV: reduces tumor growth induced by EBV
EBV; uninfected SCID mice, LTB4 i.p., 42-day period
  behaviour and survival of uninfected mice treated with LTB4 alone: behaved normally and survived throughout the 42-day period
